Experimental data: US20230255943A1, “MMP-9 AND MMP-12 INHIBITION FOR TREATING SPINAL CORD INJURY OR RELATED INJURY TO NEUROLOGICAL TISSUE” (The University of Birmingham, priority 2020, published 2023)
“And” between values parts separate entries of the source, which are not always exact repeats. Equal values may be shown once. Where a name gives a salt, the structure may show the parent alone.

How the values were obtained:
rat MMP-12 = rat MMP-12 (Rattus norvegicus, UniProt Q63341); assay: Inhibition of rat MMP-12; format: biochemical
Chain of rat MMP-12 (Q63341 102-465): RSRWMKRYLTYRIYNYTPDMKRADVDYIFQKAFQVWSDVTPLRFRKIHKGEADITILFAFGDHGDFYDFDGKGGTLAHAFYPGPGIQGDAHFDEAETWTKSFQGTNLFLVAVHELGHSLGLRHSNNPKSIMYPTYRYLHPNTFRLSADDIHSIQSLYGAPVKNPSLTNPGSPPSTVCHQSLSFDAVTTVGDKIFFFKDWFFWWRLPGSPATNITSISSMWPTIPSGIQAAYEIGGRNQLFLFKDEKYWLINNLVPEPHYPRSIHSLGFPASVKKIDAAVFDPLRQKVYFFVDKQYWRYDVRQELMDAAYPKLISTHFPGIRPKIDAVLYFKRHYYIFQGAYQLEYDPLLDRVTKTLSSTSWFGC

human MMP-12 = human MMP-12 (Homo sapiens, UniProt P39900); assay: Inhibition of human MMP-12 (IC50); format: biochemical
Chain of human MMP-12 (P39900 106-470): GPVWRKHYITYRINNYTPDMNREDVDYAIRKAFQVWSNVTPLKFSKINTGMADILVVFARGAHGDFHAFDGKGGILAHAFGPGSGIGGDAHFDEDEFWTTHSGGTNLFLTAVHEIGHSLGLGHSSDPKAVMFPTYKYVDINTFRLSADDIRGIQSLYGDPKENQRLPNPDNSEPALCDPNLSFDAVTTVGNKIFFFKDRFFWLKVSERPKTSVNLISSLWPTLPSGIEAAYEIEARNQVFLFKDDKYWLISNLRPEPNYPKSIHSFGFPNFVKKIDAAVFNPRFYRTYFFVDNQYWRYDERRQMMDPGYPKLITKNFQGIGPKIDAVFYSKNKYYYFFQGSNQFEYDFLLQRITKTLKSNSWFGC

human MMP-9 = human MMP-9 (Homo sapiens, UniProt P14780); assay: Inhibition of human MMP-9 (IC50); format: biochemical
Chain of human MMP-9 (P14780 94-707): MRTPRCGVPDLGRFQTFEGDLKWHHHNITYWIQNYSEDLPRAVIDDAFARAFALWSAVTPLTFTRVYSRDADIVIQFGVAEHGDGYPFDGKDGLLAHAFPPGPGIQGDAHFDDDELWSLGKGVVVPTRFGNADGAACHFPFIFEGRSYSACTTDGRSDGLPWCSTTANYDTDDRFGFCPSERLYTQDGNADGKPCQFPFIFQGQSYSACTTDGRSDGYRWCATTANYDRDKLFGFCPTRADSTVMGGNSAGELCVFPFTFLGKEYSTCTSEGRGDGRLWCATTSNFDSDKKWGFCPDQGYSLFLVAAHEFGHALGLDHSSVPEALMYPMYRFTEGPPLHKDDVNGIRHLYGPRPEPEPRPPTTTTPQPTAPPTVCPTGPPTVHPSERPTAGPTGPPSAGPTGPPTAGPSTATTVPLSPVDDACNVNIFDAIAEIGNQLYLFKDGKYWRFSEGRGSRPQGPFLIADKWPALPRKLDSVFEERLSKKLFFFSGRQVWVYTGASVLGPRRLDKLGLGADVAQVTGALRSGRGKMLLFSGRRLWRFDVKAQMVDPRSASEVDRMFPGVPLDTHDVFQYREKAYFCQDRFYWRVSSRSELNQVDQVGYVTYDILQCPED

[1] = tested on: mice with DC crush injury; assay: Horizontal ladder test (locomotor function) after DC injury in mice; format: in vivo, mouse
Description: Functional testing after DC lesion and treatment was carried out as described previously (N. D. Fagoe, C. L. Attwell, R. Eggers, L. Tuinenbreijer, D. Kouwenhoven, J. Verhaagen, M. R. Mason, Evaluation of Five Tests for Sensitivity to Functional Deficits following Cervical or Thoracic Dorsal Column Transection in the Rat. PLoS One 11, e0150141 (2016)).
Briefly, animals (n=18/group) were first trained to master traversing a horizontal ladder for 1 w before functional testing. Baseline parameters were established by performing tests at 2-3d before injury. Animals were then tested at 2d, 1 w, 2 w, 3 w, 4 w, 5 w and 6 w after DC injury+treatment. Experiments were performed by an observer masked to the treatment conditions in the same order and time of day with each test performed for 3 individual trials.
Horizontal ladder test: This tests the animals locomotor function and is performed on a 0.9-meter-long horizontal ladder with a diameter of 15.5 cm and randomly adjusted rungs with variable gaps of 3.5-5.0 cm. Animals were assessed traversing the ladder and the left and right rear paw slips were recorded along with the total number of steps and the mean error rate as: the number of slips/total number of steps.

[2] = tested on: LPS-stimulated primary microglia; assay: LPS-induced cytokine production by primary microglia (ELISA); format: cell-based, mouse; details: LPS 10 ng/ml, 24 h
Description: Primary mouse microglia from 6-8-week-old C57BL/6 mouse brains were prepared according to a previously described protocol (Moussaud S, Draheim H J. A new method to isolate microglia from adult mice and culture them for an extended period of time. J Neurosci Methods 2010; 187(2): 243-53). Briefly, the meninges of brains were dissected out, finely minced enzymatically digested using 20 units/ml Papain (all from Sigma). After incubation for 90 min at 37° C., the suspension was centrifuged at 200 g for 7 min and the pellet resuspended in 0.5 mg/ml DNase I (Roche, Manheim, Germany) and triturated with fire-polished Pasteur pipettes of decreasing diameters. The homogenate was then filtered through a 70 μm cell strainer (Beckton Dickinson, Watford, UK), and centrifuged through a Percoll (GE Healthcare, Amersham, UK) gradient. Finally, the cell suspension was resuspended in DMEM/F12 medium supplemented with 10% FBS (all from Invitrogen) and 5 ng/ml of granulocyte colony and macrophage stimulating factor (GM-CSF) (#415-ML, R&D Systems. Watford, UK), plated out in T75 cell culture flasks (Beckton Dickinson) precoated with poly-L-lysine, and maintained at 37° C. and 5% CO2 for approximately 2 weeks. When the cells become confluent, microglia detach and migrate to the medium-air interface, floating and proliferating. The supernatant of the flask was then collected without prior shaking to remove the microglia growing on a mixed glial culture base and centrifuged at 200 g for 7 min. The purity of microglia was determined from each flask by immunocytochemistry for CD11b and confirmed as 95% pure. Before each experiment, microglia were cultured in DMEM/F12 without GM-CSF for at least 3 d.
Microglia were used for all experiments with an in vitro age between 15-20 d in vitro (DIV) and were seeded on glass coverslips in 24-well plates at a density of 3×10^4 cells/well. Microglia were exposed to serum-free media for 24 h before exposing the cells to different concentrations of lipopolyscaccharide (LPS) in preliminary experiments to determine optimal concentrations required to maximally activate our primary microglial cultures. This was determined as 10 ng/ml. For the microglial activation assay, cells were exposed to serum-free medium for 24 h before being exposed to LPS, with or without different concentrations of AZD1236, GM6001, SD2590 and MMP-9 Inhibitor I (all used at 10-500 ng/ml) for a further 24 h. Cell culture supernatant was then collected, centrifuged to remove cell debris and subjected to ELISA to determine the concentrations of TNF-α, IL-1β and IL-6. Experiments were performed in triplicate wells and repeated on 3 independent occasions (n=9 wells/treatment).
TNF-α (#MTA00B), IL-1β (#MLBOOC) and IL-6 (#M6000B) were determined using commercially available kits from R&D Systems, following the manufacturer's instructions.

rat MMP-9 = rat MMP-9 (Rattus norvegicus, UniProt P50282); assay: Inhibition of rat MMP-9; format: biochemical
Chain of rat MMP-9 (P50282 108-708): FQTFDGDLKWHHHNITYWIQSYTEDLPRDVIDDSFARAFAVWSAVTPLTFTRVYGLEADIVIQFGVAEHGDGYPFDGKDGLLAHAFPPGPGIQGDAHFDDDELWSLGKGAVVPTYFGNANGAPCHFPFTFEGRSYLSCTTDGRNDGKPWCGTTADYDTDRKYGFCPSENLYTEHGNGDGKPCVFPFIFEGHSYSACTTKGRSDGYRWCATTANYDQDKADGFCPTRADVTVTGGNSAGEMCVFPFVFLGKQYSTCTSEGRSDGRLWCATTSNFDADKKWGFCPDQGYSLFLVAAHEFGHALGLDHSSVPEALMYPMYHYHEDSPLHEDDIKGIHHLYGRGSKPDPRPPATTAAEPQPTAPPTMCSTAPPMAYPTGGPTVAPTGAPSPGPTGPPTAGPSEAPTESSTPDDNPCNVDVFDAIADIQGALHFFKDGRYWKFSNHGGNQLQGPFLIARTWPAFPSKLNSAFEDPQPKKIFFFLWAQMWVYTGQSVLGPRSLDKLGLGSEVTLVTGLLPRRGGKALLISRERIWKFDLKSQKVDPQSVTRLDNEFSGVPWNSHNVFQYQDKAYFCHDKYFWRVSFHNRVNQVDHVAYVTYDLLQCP

DC injury = assay: Example 2: spinal cord water content as measure of injury-induced oedema; details: in vivo
Description: The lesion site+3 mm either side for mice and the lesion site+5 mm either side for the rat DC model were dissected out and the water content of the spinal cord (as a measure of oedema) was determined at 3 days after DC and CC SCI, as described previously (S. Li, C. H. Tator, Effects of MK801 on evoked potentials, spinal cord blood flow and cord edema in acute spinal cord injury in rats. Spinal Cord 37, 820-832 (1999)). Spinal cords containing the lesion site were weighed on aluminium foil, dried at 105° C. for 24 hr, and re-weighed. The percent water content was calculated as: water content (%)=[(wet weight-dry weight)/wet weight]×100%.
Using similar techniques to those described in Example 1, the water content in the spinal cord as a measure of injury-induced oedema was determined for both AZD1236 & AZD3342 (see FIG. 20).

Structure (SMILES): C[C@]1(CS(=O)(=O)N2CC=C(C#Cc3cnc(C4CC4)nc3)CC2)NC(=O)NC1=O [AZD1236]
- activity against rat MMP-12 (rat MMP-12): not active
- IC50 (human MMP-12): 6.1 nM
- IC50 (human MMP-9): 4.5 nM
- locomotor function, 24-h delayed treatment ([1]; optimal doses, 24 h delay vs immediate): equally as effective as immediate delivery
- improvement in locomotor function ([1]; oral): 85%
- mean error ratio, ladder crossing test ([1]; oral, by 2 weeks after injury): indistinguishable from sham-treated animals
- TNF-α, IL-1β and IL-6 production by LPS-activated microglia ([2]; 100 ng/ml): returning their concentrations to DMEM/F12-medium control levels
- TNF-α, IL-1β and IL-6 production by LPS-activated microglia ([2]; 500 ng/ml): completely suppressed the production of these cytokines
- TNF-α, IL-1β and IL-6 production by LPS-activated microglia ([2]; 10-500 ng/ml): dose-dependent decrease
- activity against rat MMP-9 (rat MMP-9): not active
- DC injury-induced increase in water content (FIG. 20) (DC injury): completely suppressed

Structure (SMILES): C[C@]1(CS(=O)(=O)N2CCC(Oc3ccc(Cl)cn3)CC2)NC(=O)NC1=O [AZD3342, (5S)-5-[4-(5-chloro-pyridin-2-yloxy)-piperidine-1-sulfonylmethyl]-5-methylimidazolidine-2,4-dione]
- IC50 (rat MMP-12; read-out: IC50 against rat MMP-12): 35 nM
- IC50 (human MMP-12): 6 nM and 5.9 nM
- IC50 (human MMP-9): 10 nM
- IC50 (rat MMP-9; read-out: IC50 against rat MMP-9): 117 nM
- DC injury-induced increase in water content (FIG. 20) (DC injury): completely suppressed

Structure (SMILES): CNC(=O)[C@H](Cc1c[nH]c2ccccc12)NC(=O)[C@@H](CC(=O)NO)CC(C)C [GM6001, (2R)—N^4-Hydroxy-N^1-[(1S)-1-(1H-indol-3-ylmethyl)-2-(methylamino)-2-oxoethyl]-2-(2-methylpropyl)butanediamide, reference compound]
- TNF-α, IL-1β and IL-6 production by LPS-activated microglia ([2]; 10-500 ng/ml): marginal effects

Structure (SMILES): CCN(CC)Cc1cc(C)c(N(Cc2ccccc2)S(=O)(=O)c2ccc(OC)cc2)c(C(=O)NO)c1 [MMP-9 Inhibitor I, reference compound]
- TNF-α, IL-1β and IL-6 production by LPS-activated microglia ([2]; 10-500 ng/ml): marginal effects

Structure (SMILES): COCCN1CCC(C(=O)NO)(S(=O)(=O)c2ccc(Oc3ccc(OC(F)(F)F)cc3)cc2)CC1 [SD2590, N-Hydroxy-1-(2-methoxyethyl)-4-[4-[4-(trifluoromethoxy)phenoxy]phenyl]sulfonyl]-4-piperidinecarboxamide hydrochloride, reference compound]
- TNF-α, IL-1β and IL-6 production by LPS-activated microglia ([2]; 10-500 ng/ml): marginal effects
